From patent publication US20210353579A1, “HIGH PENETRATION COMPOSITIONS AND USES THEREOF” (Techfields Pharma Co., Ltd., priority 2006, published 2021)

How the values were obtained:
[1] = tested on: Hypertension patients; experiment: Anti-hypertension effect of transdermal atenolol in patients; format: in vivo, human; details: value after the slash, 100 mg atenolol HCl salt to the chest once per day
Protocol: 20 Hypertension patents were divided to 2 groups. Group A is control group (n=10, 1 ml of water was administrated to the chest of patients once per day) and group B is atenolol treated group (n=10, 100 mg of atenolol HCl salt was administrated to the chest of patients once per day) (Table 32).

[2] = tested on: mice; experiment: Analgesic activity, acetic acid writhing; format: in vivo; details: 30 min before acetic acid
Protocol: The prodrug compounds are administered either transdermally or orally. The parent compounds are administered orally. The number of writhing that occurred when mice are administered the acetic acid solution are counted, and the rate of inhibition based on the control group which was not pretreated with any test compounds is calculated. […] The A group is the control group.

[3] = tested on: normal rats; experiment: Blood glucose in normal rats, transdermal; format: in vivo, rat; details: for Blood glucose, Average: normal rats (second Average line of Table 24), average second to fifth week, equal to 20 mg/kg of NSAIAs once per day; for Blood glucose, Baseline: normal rats (second Baseline line of Table 24), equal to 20 mg/kg of NSAIAs
Text: HPPs lower blood glucose level in rat models (SLAC/GK, type 2 diabetes, n=7). 50% acetone solution of diethylaminoethyl acetylsalicylate.acetylsalicylic acid salt (P-1, in acetone); 4-acetamidophenyl salicylyldimethylaminobutyrate.HCl (P-6), diethylaminoethyl 5-(2,4-difluorophenyl) acetylsalicylate.5-(2,4-difluorophenyl).acetylsalicylic acid salt (P-8), diethylaminoethyl salicylsalicylate.AcOH (P-9), diethylaminoethyl salicylate.AcOH (P-10), diethylaminoethyl 5-acetamido-acetylsalicylate (P-58), diethylaminoethyl acetylsalicylsalicylate.acetylsalicylsalicylic acid salt (P-59), diethylaminoethyl acetylsalicylsalicylate.acetylsalicylsalicylsalicylic acid salt (P-60) (equal to of 20 mg/kg of NSAIAs) are administered transdermally to the backs (about 1.5 cm^2) of rats (fur was shaved) once per day (at 8 am) for 5 weeks. The blood glucose levels are measured once every 3 days at 3 pm (no fasting) from the second week to the fifth week (Table 24). The blood lipid levels are measured at the end of the fifth week (Table 25). […]

[4] = tested on: mice (SLAC:NOD-IDDM, type 1 diabetes); experiment: Blood glucose in type 1 diabetes mice, transdermal; format: in vivo, mouse; details: for Blood glucose, Average: average fourth to seventh week, no fasting, equal to 30 mg/kg of NSAIAs once per day for 7 weeks; for Blood glucose, Baseline: equal to 30 mg/kg of NSAIAs
Text: The pro-drugs in this invention lower blood glucose levels in mouse models (SLAC:NOD-IDDM, type 1 diabetes, n=7). 50% acetone solution of diethylaminoethyl acetylsalicylate.acetylsalicylic acid salt (P-1, in acetone); 4-acetamidophenyl salicylyldimethylaminobutyrate.HCl (P-6), diethylaminoethyl 5-(2,4-difluorophenyl) acetylsalicylate.5-(2,4-difluorophenyl) acetylsalicylic acid salt (P-8), diethylaminoethyl salicylsalicylate.AcOH (P-9), diethylaminoethyl salicylate.AcOH (P-10), diethylaminoethyl 5-acetamido-acetylsalicylate (P-58), diethylaminoethyl acetylsalicylsalicylate. acetylsalicylsalicylic acid salt (P-59), diethylaminoethyl acetylsalicylsalicylate. acetylsalicylsalicylsalicylic acid salt (P-60) (equal to of 30 mg/kg of NSAIAs) were administered transdermally to the backs (about 1.5 cm^2) of mice (fur was shaved) once per day (at 8 am) for 7 weeks. The blood glucose levels were measured once every 3 days at 3 pm (no fasting) from the fourth week to the seventh week.

[5] = tested on: rats (SLAC/GK, type 2 diabetes); experiment: Blood glucose in type 2 diabetes rats, oral with food; format: in vivo, rat; details: for Blood glucose, Diabetic rats, Average: average second to fifth week, no fasting, equal to 20 mg/kg of NSAIAs every day for 5 weeks; for Blood glucose, Diabetic rats, Baseline: equal to 20 mg/kg of NSAIAs
Text: (§1) 20% acetone solution of diethylaminoethyl acetylsalicylate.acetylsalicylic acid salt (P-1, in acetone); 4-acetamidophenyl salicylyldimethylaminobutyrate.HCl (P-6), diethylaminoethyl 5-(2,4-difluorophenyl) acetylsalicylate.5-(2,4-difluorophenyl) acetylsalicylic acid salt (P-8), diethylaminoethyl salicylsalicylate.AcOH (P-9), diethylaminoethyl salicylate.AcOH (P-10), diethylaminoethyl 5-acetamido-acetylsalicylate (P-58), diethylaminoethyl acetylsalicylsalicylate. acetylsalicylsalicylic acid salt (P-59), diethylaminoethyl acetylsalicylsalicylate. acetylsalicylsalicylsalicylic acid salt (P-60) (equal to of 20 mg/kg of NSAIAs) were mixed with food and were orally administered to the rats (SLAC/GK, type 2 diabetes, n=7) with food every day for 5 weeks. The blood glucose levels were measured once every 3 days at 3 pm (no fasting) from the second week to the fifth week. The blood lipid levels were measured at the end of the fifth week.

[6] = tested on: rats (SLAC/GK, type 2 diabetes); experiment: Blood glucose in type 2 diabetes rats, transdermal; format: in vivo, rat; details: diabetic rats (SLAC/GK); for Blood glucose, Average: average second to fifth week, no fasting, equal to 20 mg/kg of NSAIAs once per day for 5 weeks; for Blood glucose, Baseline: equal to 20 mg/kg of NSAIAs once per day
Text: (§2) HPPs lower blood glucose level in rat models (SLAC/GK, type 2 diabetes, n=7). 50% acetone solution of diethylaminoethyl acetylsalicylate.acetylsalicylic acid salt (P-1, in acetone); 4-acetamidophenyl salicylyldimethylaminobutyrate.HCl (P-6), diethylaminoethyl 5-(2,4-difluorophenyl) acetylsalicylate.5-(2,4-difluorophenyl).acetylsalicylic acid salt (P-8), diethylaminoethyl salicylsalicylate.AcOH (P-9), diethylaminoethyl salicylate.AcOH (P-10), diethylaminoethyl 5-acetamido-acetylsalicylate (P-58), diethylaminoethyl acetylsalicylsalicylate.acetylsalicylsalicylic acid salt (P-59), diethylaminoethyl acetylsalicylsalicylate.acetylsalicylsalicylsalicylic acid salt (P-60) (equal to of 20 mg/kg of NSAIAs) are administered transdermally to the backs (about 1.5 cm^2) of rats (fur was shaved) once per day (at 8 am) for 5 weeks. The blood glucose levels are measured once every 3 days at 3 pm (no fasting) from the second week to the fifth week (Table 24). The blood lipid levels are measured at the end of the fifth week (Table 25).

[7] = tested on: normal rats; experiment: Blood glucose in normal rats, oral with food; format: in vivo, rat; details: for Blood glucose, Normal rats, Average: average second to fifth week, equal to 20 mg/kg of NSAIAs every day; for Blood glucose, Normal rats, Baseline: equal to 20 mg/kg of NSAIAs
[8] = tested on: mice; experiment: Analgesic activity, D'Amour-Smith method (tail heat, pain threshold); format: in vivo; details: 200 mg/kg transdermally vs 200 mg/kg diflunisal orally
Protocol: After the tested compounds are administered (the dosages for each test compounds are specified in FIG. 3, prodrug compounds are administered orally and transdermally respectively in different groups, while parent compounds are administered orally) to a group of mice (six mice every group), the tails of mice are exposed to heat and the prolongation time of pain threshold is determined. […] The prodrug compounds show similar analgesic activities when the same dosages are administered orally or transdermally. (FIG. 3)

[9] = tested on: rats (SLAC/GK, type 2 diabetes); experiment: Blood lipid in type 2 diabetes rats, transdermal; format: in vivo, rat; details: for Cholesterol (HDL), Baseline / Cholesterol (total), Baseline / Triglycerides, Baseline: equal to 20 mg/kg of NSAIAs; for Cholesterol (HDL), Average / Cholesterol (total), Average / Triglycerides, Average: end of the fifth week, equal to 20 mg/kg of NSAIAs once per day
Text: as §2

[10] = tested on: rat; details: rats;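 also: acute toxicity in rats expressed as LD50, determined for both prodrugs and their parent compounds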
Protocol: The acute toxicity of the prodrug compounds and parent compounds are measured by LD50 of rat.

[11] = tested on: human skin tissue; details: pH 7.4
[12] = tested on: rats; experiment: Antipyretic activity, E. coli suspension as pyrogen; format: in vivo; details: in °C (unit assumed)
Protocol: Rats are administered with sterilized E. coli suspension as a pyrogen. Each group of rats are administered with a prodrug compounds or parent compounds at a dosage specified below. The prodrug compounds are administered either orally or transdermally. The parent compounds are administered orally.

[13] = Plasma levels after transdermal administration to hairless mice; format: in vivo; details: mouse, in vivo
Protocol: Tested compounds (20% solution or suspension in 1 mL isopropanol) are administered transdermally to the skin of intact hairless mice. The plasma levels of the parent compounds are determined by HPLC.

[14] = tested on: rats (SLAC/GK, type 2 diabetes); experiment: Blood lipid in type 2 diabetes rats, oral with food; format: in vivo, rat; details: for Cholesterol (HDL), Baseline / Cholesterol (total), Baseline / Triglycerides, Baseline: equal to 20 mg/kg of NSAIAs; for Cholesterol (HDL), Average / Cholesterol (total), Average / Triglycerides, Average: end of the fifth week, equal to 20 mg/kg of NSAIAs every day
Text: as §1

| SMILES | % (rate of writhing inhibition) ([2]; 50 mg/kg transdermally) [%] | No. of Writhing ([2]; 50 mg/kg transdermally) | % (rate of writhing inhibition) ([2]; 100 mg/kg transdermally) [%] | No. of Writhing ([2]; 100 mg/kg transdermally) | Blood glucose, Average [3] [mmol/L] | Blood glucose, Baseline [3] [mmol/L] | Blood glucose, Average [4] [mmol/L] | Blood glucose, Baseline [4] [mmol/L] | Blood glucose, Diabetic rats, Average [5] [mmol/L] | Blood glucose, Diabetic rats, Baseline [5] [mmol/L] | Blood glucose, Average [6] [mmol/L] | Blood glucose, Baseline [6] [mmol/L] | Blood glucose, Normal rats, Average [7] [mmol/L] | Blood glucose, Normal rats, Baseline [7] [mmol/L] | analgesic activity, prolongation time of pain threshold of mice tails [8] | Cholesterol (HDL), Baseline [9] [mmol/L] | Cholesterol (total), Baseline [9] [mmol/L] | Triglycerides, Baseline [9] [mmol/L] | Cholesterol (HDL), Average [9] [mmol/L] | Cholesterol (total), Average [9] [mmol/L] | also measured |
| --- | --- | --- | --- | --- | --- | --- | --- | --- | --- | --- | --- | --- | --- | --- | --- | --- | --- | --- | --- | --- | --- |
| CC(C)NCC(O)COc1ccc(CC(N)=O)cc1 (centres unmarked) [atenolol] | – | – | – | – | – | – | – | – | – | – | – | – | – | – | – | – | – | – | – | – | Blood pressure (2 weeks after treatment), second value ([1]; 2 weeks after treatment): 113 ± 23 mmHg; Blood Pressure (before treatment), second value ([1]; before treatment): 110 ± 20 mmHg |
| CC(=O)O.CCN(CC)CCOC(=O)c1ccccc1O [diethylaminoethyl salicylate.AcOH] | 60 | 14.0 | 66 | 11.9 | 6.9 ± 1 | 6.8 ± 1 | 8.2 ± 1 | 25.8 ± 3 | 7.8 ± 1 | 15.6 ± 3 | 8.2 ± 1 | 15.8 ± 3 | 6.9 ± 1 | 6.7 ± 1 | stronger analgesic activity | 1.6 ± 0.2 | 7.1 ± 0.5 | 5.6 ± 0.6 | 1.5 ± 0.1 | 4.9 ± 0.4 | Triglycerides, Average [9]: 2.5 ± 0.2 mmol/L; LD50 of HPP [10]: 1600 mg/kg; In vitro penetration rate (apparent flux), prodrug compounds [11]: 60 μg/cm^2/h; body temperature, t = 0 min ([12]; 100 mg/kg transdermally): 37.28 ± 0.06; body temperature, t = 90 min ([12]; 100 mg/kg transdermally): 36.85 ± 0.06; body temperature, t = 180 min ([12]; 100 mg/kg transdermally): 36.88 ± 0.08; body temperature, t = 270 min ([12]; 100 mg/kg transdermally): 36.86 ± 0.07; body temperature, t = 0 min ([12]; 150 mg/kg transdermally): 37.26 ± 0.05; body temperature, t = 90 min ([12]; 150 mg/kg transdermally): 36.55 ± 0.05; body temperature, t = 180 min ([12]; 150 mg/kg transdermally): 36.60 ± 0.07; body temperature, t = 270 min ([12]; 150 mg/kg transdermally): 36.65 ± 0.05; Peak plasma concentration of parent compound after prodrug compound [13]: 40 mg/L; t, time to peak plasma level of parent compound after prodrug compound [13]: 30 min; Cholesterol (HDL), Baseline [14]: 1.6 ± 0.2 mmol/L; Cholesterol (total), Baseline [14]: 7.6 ± 0.5 mmol/L; Triglycerides, Baseline [14]: 5.7 ± 0.6 mmol/L; Cholesterol (HDL), Average [14]: 1.7 ± 0.1 mmol/L; Cholesterol (total), Average [14]: 5.2 ± 0.5 mmol/L; Triglycerides, Average [14]: 2.6 ± 0.2 mmol/L |
| CC(=O)O.CCN(CC)CCOC(=O)c1ccccc1OC(=O)c1ccccc1O [diethylaminoethyl salicylsalicylate.AcOH] | 59 | 14.2 | 65 | 12.0 | 6.7 ± 1 | 6.5 ± 1 | 9.4 ± 1 | 26.5 ± 4 | 7.6 ± 1 | 16.5 ± 4 | 8.4 ± 1 | 16.5 ± 4 | 6.6 ± 1 | 6.3 ± 1 | stronger analgesic activity | 1.3 ± 0.1 | 7.7 ± 0.5 | 5.3 ± 0.5 | 1.4 ± 0.2 | 4.8 ± 0.4 | Triglycerides, Average [9]: 2.4 ± 0.2 mmol/L; LD50 of HPP [10]: 2000 mg/kg; In vitro penetration rate (apparent flux), prodrug compounds [11]: 80 μg/cm^2/h; body temperature, t = 0 min ([12]; 100 mg/kg transdermally): 37.28 ± 0.06; body temperature, t = 90 min ([12]; 100 mg/kg transdermally): 36.75 ± 0.06; body temperature, t = 180 min ([12]; 100 mg/kg transdermally): 36.78 ± 0.08; body temperature, t = 270 min ([12]; 100 mg/kg transdermally): 36.80 ± 0.07; body temperature, t = 0 min ([12]; 150 mg/kg transdermally): 37.26 ± 0.05; body temperature, t = 90 min ([12]; 150 mg/kg transdermally): 36.45 ± 0.05; body temperature, t = 180 min ([12]; 150 mg/kg transdermally): 36.40 ± 0.07; body temperature, t = 270 min ([12]; 150 mg/kg transdermally): 36.50 ± 0.05; Peak plasma concentration of parent compound after prodrug compound [13]: 40 mg/L; t, time to peak plasma level of parent compound after prodrug compound [13]: 30 min; Cholesterol (HDL), Baseline [14]: 1.5 ± 0.1 mmol/L; Cholesterol (total), Baseline [14]: 7.9 ± 0.5 mmol/L; Triglycerides, Baseline [14]: 5.8 ± 0.6 mmol/L; Cholesterol (HDL), Average [14]: 1.4 ± 0.2 mmol/L; Cholesterol (total), Average [14]: 5.6 ± 0.4 mmol/L; Triglycerides, Average [14]: 2.7 ± 0.2 mmol/L |
